Species on record: Rattus norvegicus
Experiment: Open TG-GATES - Regimen: Single
Format: toxicity, organism-based, Sprague-Dawley
Design: regimen Single, gender Male, age 6 weeks
Settings: in vivo, po, 15 mg/kg, route gavage, dose level Low; for APTT / Bas / Eos / Fbg / Hb / Ht / Lym / MCH / MCHC / MCV / Mono / Neu / PT / Plat / RBC / Ret / WBC: tissue Blood; for KIDNEY_L / KIDNEY_R / KIDNEY_TOTAL: tissue Kidney; for LIVER: tissue Liver; for A/G / ALP / ALT / AST / BUN / CRE / Ca / Cl / DBIL / GLC / IP / K / LDH / Na / PL / RALB / TBIL / TC / TG / TP / gamma-GTP: tissue Plasma

`Nc1nc(N)c2nc(-c3ccccc3)c(N)nc2n1` gave a TERMINAL_BW (3 h) of 213.1 g, an APTT (3 h) of 16.6 s and a Bas (3 h) of 0%. The Eos (3 h) was 1%, the Fbg (3 h) was 307 mg/dL and the Hb (3 h) was 14.2 g/dL. For the same molecule, the Ht (3 h) was 42.9%, the Lym (3 h) was 78.2% and the MCH (3 h) was 21.5 pg. The MCHC (3 h) was 33%, the MCV (3 h) was 65.1 fL and the Mono (3 h) was 3.4%. The Neu (3 h) was 17%, the PT (3 h) was 14.3 s and the Plat (3 h) was 129.9 x10_4/uL. For the same molecule, the RBC (3 h) was 659.2 x10_4/ul, the Ret (3 h) was 7.7% and the WBC (3 h) was 86.3 x10_2/uL. It also gave a KIDNEY_L (3 h) of 1 g, a KIDNEY_R (3 h) of 1 g and a KIDNEY_TOTAL (3 h) of 2 g. The LIVER (3 h) was 9.6 g, the A/G (3 h) was 0.9 and the ALP (3 h) was 1340.6 IU/L. It also gave an ALT (3 h) of 39.8 IU/L, an AST (3 h) of 73.2 IU/L and a BUN (3 h) of 10.4 mg/dL. The CRE (3 h) was 0.2 mg/dL, the Ca (3 h) was 11 mg/dL and the Cl (3 h) was 105.2 meq/L. The DBIL (3 h) was 0.008 mg/dL, the GLC (3 h) was 170.2 mg/dL and the IP (3 h) was 8.6 mg/dL. It also gave a K (3 h) of 4.6 meq/L, an LDH (3 h) of 56.2 IU/L and a Na (3 h) of 141.2 meq/L. The PL (3 h) was 144 mg/dL, the RALB (3 h) was 2.7 g/dL and the TBIL (3 h) was 0.05 mg/dL. For the same molecule, the TC (3 h) was 76.2 mg/dL, the TG (3 h) was 81.4 mg/dL and the TP (3 h) was 5.6 g/dL. For the same molecule, the gamma-GTP (3 h) was 1.2 IU/L, the TERMINAL_BW (6 h) was 211.9 g and the APTT (6 h) was 16.3 s. The Bas (6 h) was 0.4%, the Eos (6 h) was 1% and the Fbg (6 h) was 292.4 mg/dL. The Hb (6 h) was 13.8 g/dL, the Ht (6 h) was 41.6% and the Lym (6 h) was 76%. It also gave an MCH (6 h) of 21.2 pg, an MCHC (6 h) of 33.2% and an MCV (6 h) of 63.9 fL. The Mono (6 h) was 2.6%, the Neu (6 h) was 19.6% and the PT (6 h) was 14.3 s. The Plat (6 h) was 117.9 x10_4/uL, the RBC (6 h) was 651.8 x10_4/ul and the Ret (6 h) was 7.8%. It also gave a WBC (6 h) of 88.3 x10_2/uL, a KIDNEY_L (6 h) of 1 g and a KIDNEY_R (6 h) of 1 g. For the same molecule, the KIDNEY_TOTAL (6 h) was 1.9 g, the LIVER (6 h) was 9 g and the A/G (6 h) was 1. It also gave an ALP (6 h) of 1353.4 IU/L, an ALT (6 h) of 38.2 IU/L and an AST (6 h) of 72.8 IU/L. The BUN (6 h) was 9.2 mg/dL, the CRE (6 h) was 0.2 mg/dL and the Ca (6 h) was 10.8 mg/dL. It also gave a Cl (6 h) of 105.6 meq/L, a DBIL (6 h) of 0.008 mg/dL and a GLC (6 h) of 167.8 mg/dL. The IP (6 h) was 9.9 mg/dL, the K (6 h) was 4.4 meq/L and the LDH (6 h) was 56.4 IU/L. The Na (6 h) was 142.6 meq/L, the PL (6 h) was 138.4 mg/dL and the RALB (6 h) was 2.6 g/dL. For the same molecule, the TBIL (6 h) was 0.062 mg/dL, the TC (6 h) was 77 mg/dL and the TG (6 h) was 49.8 mg/dL. The TP (6 h) was 5.4 g/dL, the gamma-GTP (6 h) was 1.2 IU/L and the TERMINAL_BW (9 h) was 206.1 g. The APTT (9 h) was 16.7 s, the Bas (9 h) was 0% and the Eos (9 h) was 0.8%. For the same molecule, the Fbg (9 h) was 322.4 mg/dL, the Hb (9 h) was 14 g/dL and the Ht (9 h) was 42.2%. The Lym (9 h) was 77.6%, the MCH (9 h) was 21.2 pg and the MCHC (9 h) was 33.2%. For the same molecule, the MCV (9 h) was 64 fL, the Mono (9 h) was 2.4% and the Neu (9 h) was 18.2%. It also gave a PT (9 h) of 13.9 s, a Plat (9 h) of 128.2 x10_4/uL and an RBC (9 h) of 659.6 x10_4/ul. It also gave a Ret (9 h) of 7.5%, a WBC (9 h) of 82.6 x10_2/uL and a KIDNEY_L (9 h) of 1 g. For the same molecule, the KIDNEY_R (9 h) was 1 g, the KIDNEY_TOTAL (9 h) was 2 g and the LIVER (9 h) was 8.3 g. For the same molecule, the A/G (9 h) was 0.9, the ALP (9 h) was 1426 IU/L and the ALT (9 h) was 39 IU/L. It also gave an AST (9 h) of 67.4 IU/L, a BUN (9 h) of 9.2 mg/dL and a CRE (9 h) of 0.2 mg/dL. The Ca (9 h) was 10.8 mg/dL, the Cl (9 h) was 106.2 meq/L and the DBIL (9 h) was 0.006 mg/dL. The GLC (9 h) was 163 mg/dL, the IP (9 h) was 9.9 mg/dL and the K (9 h) was 4.1 meq/L. For the same molecule, the LDH (9 h) was 47.8 IU/L, the Na (9 h) was 143 meq/L and the PL (9 h) was 144 mg/dL. It also gave an RALB (9 h) of 2.7 g/dL, a TBIL (9 h) of 0.056 mg/dL and a TC (9 h) of 84.8 mg/dL. It also gave a TG (9 h) of 41.4 mg/dL, a TP (9 h) of 5.5 g/dL and a gamma-GTP (9 h) of 1.2 IU/L. It also gave a TERMINAL_BW (24 h) of 226.6 g, an APTT (24 h) of 19 s and a Bas (24 h) of 0%. The Eos (24 h) was 1%, the Fbg (24 h) was 289.6 mg/dL and the Hb (24 h) was 14 g/dL. It also gave a Ht (24 h) of 41.7%, a Lym (24 h) of 83.6% and an MCH (24 h) of 21.1 pg. For the same molecule, the MCHC (24 h) was 33.6%, the MCV (24 h) was 62.7 fL and the Mono (24 h) was 1.6%. For the same molecule, the Neu (24 h) was 12.8%, the PT (24 h) was 14 s and the Plat (24 h) was 121.6 x10_4/uL. It also gave an RBC (24 h) of 664.8 x10_4/ul, a Ret (24 h) of 6.2% and a WBC (24 h) of 84.7 x10_2/uL. For the same molecule, the KIDNEY_L (24 h) was 1 g, the KIDNEY_R (24 h) was 1 g and the KIDNEY_TOTAL (24 h) was 2 g. For the same molecule, the LIVER (24 h) was 10.5 g, the A/G (24 h) was 0.9 and the ALP (24 h) was 1713.2 IU/L. For the same molecule, the ALT (24 h) was 44.8 IU/L, the AST (24 h) was 67.4 IU/L and the BUN (24 h) was 15.2 mg/dL. It also gave a CRE (24 h) of 0.2 mg/dL, a Ca (24 h) of 11 mg/dL and a Cl (24 h) of 105.4 meq/L. For the same molecule, the DBIL (24 h) was 0.012 mg/dL, the GLC (24 h) was 183.2 mg/dL and the IP (24 h) was 8.3 mg/dL. The K (24 h) was 4.1 meq/L, the LDH (24 h) was 58.4 IU/L and the Na (24 h) was 143.6 meq/L. For the same molecule, the PL (24 h) was 153.2 mg/dL, the RALB (24 h) was 2.7 g/dL and the TBIL (24 h) was 0.044 mg/dL. It also gave a TC (24 h) of 79.4 mg/dL, a TG (24 h) of 87.8 mg/dL and a TP (24 h) of 5.4 g/dL. The gamma-GTP (24 h) was 1 IU/L.
